pIC50: −log10 of the molar value.
These compounds were tested against Sphingosine 1-phosphate receptor 4 (Homo sapiens) (UniProt O95977) (assay: potency of S1P4 blockers – cell-based, fluorescence, synthesized analogues, late-stage follow-up (AID 2346)). Conditions: S1P4-expressing cells, antagonist fluorescence read-out; cut-off not given, nearly all actives have IC50 up to about 0.49 µM.
Sequence of Sphingosine 1-phosphate receptor 4 (Homo sapiens) (O95977 whole entry, looked up): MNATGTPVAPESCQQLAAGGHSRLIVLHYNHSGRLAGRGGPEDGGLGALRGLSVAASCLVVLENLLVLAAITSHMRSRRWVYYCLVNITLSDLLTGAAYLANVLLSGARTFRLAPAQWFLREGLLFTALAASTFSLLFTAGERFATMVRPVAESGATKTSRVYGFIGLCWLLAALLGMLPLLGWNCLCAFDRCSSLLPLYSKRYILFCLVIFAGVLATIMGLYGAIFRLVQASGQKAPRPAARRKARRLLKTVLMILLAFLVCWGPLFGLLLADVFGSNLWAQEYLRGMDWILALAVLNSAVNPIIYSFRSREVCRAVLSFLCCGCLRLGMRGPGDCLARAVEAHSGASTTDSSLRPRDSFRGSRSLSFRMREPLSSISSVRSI

pIC50, active:
Cc1ccc(S(C)(=O)=O)c(C)c1NC(=O)c1ccc(-c2cc(Cl)ccc2Cl)o1 6.52
Cc1cscc1-c1ccc(C(=O)Nc2c(C)cccc2C)o1 6.54
Cc1cccc(C)c1NC(=O)c1ccc(-c2cccc(Cl)c2)o1 6.30
Cc1ccc(C)c(NC(=O)c2ccc(-c3cc(Cl)ccc3Cl)o2)c1 6.78
COc1cccc(OC)c1NC(=O)c1ccc(-c2cc(Cl)ccc2Cl)o1 6.38
Cc1cccc(Cl)c1NC(=O)c1ccc(-c2cc(Cl)ccc2Cl)o1 6.77
Cc1cccc(C)c1NC(=O)c1ccc(-c2cc(F)ccc2F)o1 6.51
CC(C)c1cccc(C(C)C)c1NC(=O)c1ccc(-c2cc(Cl)ccc2Cl)o1 6.98
COc1cccc(C)c1NC(=O)c1ccc(-c2cc(Cl)ccc2Cl)o1 6.79
Cc1ccc2ccccc2c1NC(=O)c1ccc(-c2cc(Cl)ccc2Cl)o1 6.60
CCc1cccc(CC)c1NC(=O)c1ccc(-c2cc(Cl)ccc2Cl)o1 7.05

— PubChem BioAssay AID2346 (The Scripps Research Institute Molecular Screening Center, 2010)
